We go through 17 compounds from patent US3956495A, “2,4-Diaminoquinazolines as antithrombotic agents” (Eli Lilly and Company, priority 1973, dated 1976).

Structures can show the parent of a compound that is named as a salt.

In assay [1] the test system is collagen-induced aggregation (platelet). In words: Collagen-induced platelet aggregation inhibition, in vitro test (Table I). In kind it is cell-based. Particulars: for inhibition at 41.7 µg/mL: 41.7 μg/ml; for inhibition at 167 µg/mL: 167 μg/ml; for inhibition at 10.4 µg/mL: 10.4 μg/ml. The source says: (§1) Exp. Biol. Med., 135, 100 (1970), and references cited therein.

In assay [2] the test system is platelet aggregation to collagen challenge. In words: Platelet aggregation inhibition to collagen challenge, in vivo-in vitro test after oral administration (Table II). Particulars: stock suspension 1:4, blood one hour and three hours after dosing. More on the design: species or system guinea pig. Here is the method:
Briefly, the test procedure is as follows: blood samples are obtained from a guinea pig prior to the oral administration of the test compound. The test compound when is administered orally and blood samples withdrawn one hour and three hours after dosing. Each blood sample is treated as described in the in vitro test. The test requires one control group of six animals and six animals per compound per dose. For a more detailed description, see Herrmann et al., Proc. Soc. Exp. Biol. Med., 139, 548 (1972).

Assay [3] has as its system ADP-induced aggregation (platelet). In words: ADP-induced platelet aggregation inhibition, in vitro test (Table I). Particulars: for inhibition at 167 µg/mL: 167 μg/ml. In kind it is cell-based.
Text: as §1

Where [4] appears, read: Platelet, collagen stock suspension 1:4.
Where [5] appears, read: Platelet, 83.4 μg/ml, collagen stock suspension 1:4.
Setting [6] is: Platelet, collagen stock solution 1:32.

The term inhibition denotes how much of the control response was suppressed. Lower therefore signals a weak effect. Regarding `c1ccc2c(N3CCCCC3)nc(N3CCCCC3)nc2c1` [2,4-bispiperidinoquinazoline], the inhibition at 41.7 µg/mL in assay [1] (setting [4]) was no less than 20%. Moreover, the inhibition at 50 mg/kg in assay [2] (Cavia porcellus, Platelet, 50 mg/kg) is no less than 20%. `CN1CCN(c2nc(N)c3ccccc3n2)CC1` [2-(4-methylpiperazinyl)-4-aminoquinazoline hydrochloride] registered an inhibition at 83.4 µg/mL in assay [1] (setting [5]) of no less than 20%. With `Clc1ccc2nc(N3CCOCC3)nc(N3CCOCC3)c2c1` [2,4-bismorpholino-6-chloroquinazoline], the values for the inhibition at 167 µg/mL in assay [1] (setting [6]) and in assay [3] were 25% and 3%, respectively. The corresponding values for `Cc1ccc2nc(N3CCOCC3)nc(N3CCOCC3)c2c1` [2,4-bismorpholino-6-methylquinazoline] are 62% and 29%.

As for `CN(C)c1nc(N(C)C)c2ccccc2n1` [2,4-bis(dimethylamino)quinazoline], the inhibition at 41.7 µg/mL in assay [1] (setting [4]) is no less than 20%. Consider `CN1CCN(c2nc(N3CCOCC3)c3ccccc3n2)CC1` [2-(4-methylpiperazinyl)-4-morpholinoquinazoline], for which 2.6 µg/mL produced 30% inhibition in assay [1] (Platelet, 2.6 μg/ml, collagen stock solution 1:32). Besides, in assay [3] (83 μg/ml), 83 µg/mL produced 44% inhibition.

Consider `CCN(CC)c1nc(N2CCOCC2)nc2ccccc12` [2-morpholino-4-diethylaminoquinazoline, 2-morpholino-4-diethylaminoquinazoline hydrochloride], for which, in assay [1] (setting [4]), the inhibition at 10.4 µg/mL is no less than 20%. In assay [1] (setting [4]), `CN1CCN(c2nc(N3CCOCC3)nc3ccccc23)CC1` [2-morpholino-4-(4-methylpiperazinyl)quinazoline dihydrochloride, dihydrate] yielded an inhibition at 41.7 µg/mL of no less than 20%. In the case of `c1ccc2c(NC34CC5CC(CC(C5)C3)C4)nc(N3CCOCC3)nc2c1` [2-morpholino-4-(1-adamantylamino)quinazoline hydrochloride], in assay [1] (setting [5]), the inhibition at 83.4 µg/mL is no less than 20%. Still for that read-out and setting: the same measure for `NCCNc1nc(N2CCOCC2)c2ccccc2n1` [2-(2-aminoethylamino)-4-morpholinoquinazoline dihydrochloride]: no less than 20%. For `Clc1ccc2nc(N3CCCCC3)nc(N3CCCCC3)c2c1` [2,4-bispiperidino-6-chloroquinazoline], the inhibition at 167 µg/mL in assay [1] (setting [6]) came to 91%; in assay [3], 61%. In the case of `CCN(CC)CCNc1nc(N2CCCC2)nc2ccccc12` [2-pyrrolidinyl-4-(2-diethylaminoethylamino)quinazoline], in assay [1] (Platelet, collagen stock suspension undiluted), the inhibition at 10.4 µg/mL is no less than 20%. The compound also registered an inhibition at 20.8 µg/mL in assay [1] (Platelet, 20.8 μg/ml, collagen stock suspension 1:4) of no less than 20%. Take `Nc1nc(N2CCOCC2)nc2ccccc12` [2-morpholino-4-aminoquinazoline]: the inhibition at 41.7 µg/mL in assay [1] (setting [4]) is no less than 20%.

In assay [1] (setting [4]), `CCN(CC)CCNc1nc(N2CCOCC2)nc2ccccc12` [2-morpholino-4-(2-diethylaminoethylamino)quinazoline hydrochloride] yielded an inhibition at 41.7 µg/mL of no less than 20%. In addition, the inhibition at 100 mg/kg in assay [2] (Cavia porcellus, Platelet, 100 mg/kg) is no less than 20%. Turning to 2,4-bispyrrolidinylquinazoline, the “% Inhibition of Aggregation, Collagen” value is recorded as no less than 20% in assay [1] (2.6 μg/ml, collagen stock suspension undiluted) and no less than 20% in assay [1] (83.4 μg/ml, collagen stock suspension 1:4). For the same compound, in assay [2] (12.5 mg/kg), the “% Inhibition of Aggregation to Collagen Challenge” value is recorded as no less than 20%.

For the compound `c1ccc2c(N3CCOCC3)nc(N3CCOCC3)nc2c1` [2,4-bismorpholinoquinazoline], 10.4 µg/mL produced 35% inhibition in assay [1] (setting [4]). The compound also gave an inhibition at 5.2 µg/mL in assay [3] (5.2 μg/ml) of 51%.

Consider `Cc1ccc2nc(N3CCCCC3)nc(N3CCCCC3)c2c1` [2,4-bispiperidino-6-methylquinazoline], for which the inhibition at 167 µg/mL in assay [1] (setting [6]) amounted to 21%; in assay [3], 5%.
